Results from patent publication US20260176320A1, “MODULATORS OF G-PROTEIN COUPLED RECEPTORS” (priority 2018, published 2026).
Like-named read-outs stand apart in the source and are kept apart here.

What was measured:
[1] = target: T1, GIP-R (Homo sapiens, UniProt P48546); assay: HitHunter cAMP assay (GIP-R); type: cell-based; conditions: for Emax: read-out: (Emax) GIP-R
T1 sequence (P48546 22-466): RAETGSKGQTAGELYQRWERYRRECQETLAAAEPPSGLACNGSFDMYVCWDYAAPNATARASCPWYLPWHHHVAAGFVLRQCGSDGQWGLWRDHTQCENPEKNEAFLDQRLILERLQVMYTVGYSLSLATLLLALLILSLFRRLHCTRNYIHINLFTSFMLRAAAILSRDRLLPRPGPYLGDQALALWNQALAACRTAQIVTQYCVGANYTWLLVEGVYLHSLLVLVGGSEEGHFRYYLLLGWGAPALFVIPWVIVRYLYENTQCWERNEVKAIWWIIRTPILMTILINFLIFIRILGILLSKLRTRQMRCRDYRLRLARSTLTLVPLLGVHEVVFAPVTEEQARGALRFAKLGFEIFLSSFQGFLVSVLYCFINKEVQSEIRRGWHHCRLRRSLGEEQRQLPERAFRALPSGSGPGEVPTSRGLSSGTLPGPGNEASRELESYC
Procedure, shortened: (§1)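 Agonist stimulation lasts 30 min at room temperature on 10,000 cells per well, with phosphodiesterase blocked by 625 μM IBMX. Accumulated cAMP is quantified by competitive antibody luminescence after overnight development.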

[2] = target: GLP-1R (Homo sapiens, UniProt P43220); assay: HitHunter cAMP assay (GLP-1R); type: cell-based; conditions: for Emax: read-out: (Emax) GLP-1R
GLP-1R, sequence (P43220 24-463): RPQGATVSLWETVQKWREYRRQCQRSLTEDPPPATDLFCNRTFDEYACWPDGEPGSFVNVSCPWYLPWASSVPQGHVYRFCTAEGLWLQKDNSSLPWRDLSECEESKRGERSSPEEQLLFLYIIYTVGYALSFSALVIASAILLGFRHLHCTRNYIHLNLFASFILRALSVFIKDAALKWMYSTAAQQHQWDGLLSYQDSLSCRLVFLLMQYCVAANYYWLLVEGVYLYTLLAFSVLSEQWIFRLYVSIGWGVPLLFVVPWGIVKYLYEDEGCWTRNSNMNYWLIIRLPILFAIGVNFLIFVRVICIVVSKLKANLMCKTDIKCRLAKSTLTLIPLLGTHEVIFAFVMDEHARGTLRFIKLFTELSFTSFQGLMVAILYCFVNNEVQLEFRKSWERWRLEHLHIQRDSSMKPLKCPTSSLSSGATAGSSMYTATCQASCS
Procedure, shortened: as §1

[3] = Table 3, cAMP, read-out: EC50 GIP-R/nM
[4] = Table 3A, cAMP, read-out: EC50 GIP-R/nM
[5] = read-out: (Emax) GIP-R at 1 μM, Table 3, cAMP
[6] = Table 3, cAMP, read-out: EC50 GLP-1R/nM
[7] = Table 3A, cAMP, read-out: EC50 GLP-1R/nM

SMILES | EC50 [1, 3] | EC50 [1, 4] | Emax at 1 µM [1, 5] | Emax at 1 µM ([1]; read-out: (Emax) GIP-R at 1 μM, Table 3A, cAMP) | Emax ([2]; Table 3, cAMP) | EC50 [2, 6] | Emax ([2]; Table 3A, cAMP) | EC50 [2, 7] | EC50 ([1]; EC50 GIP-R/nM, Table 3, cAMP) | EC50 ([1]; EC50 GIP-R/nM, Table 3A, cAMP) | Emax ([1]; Table 3, cAMP) | Emax ([1]; Table 3A, cAMP) | EC50 ([2]; EC50 GLP-1R/nM, Table 3, cAMP) | EC50 ([2]; EC50 GLP-1R/nM, Table 3A, cAMP) | Emax [1] | Emax [2]
CC[C@H](C)[C@H](NC(=O)[C@H](CO)NC(=O)[C@H](Cc1ccc(O)cc1)NC(=O)[C@H](CC(=O)O)NC(=O)[C@H](CO)NC(=O)[C@@H](NC(=O)[C@H](Cc1ccccc1)NC(=O)[C@@H](NC(=O)CNC(=O)[C@H](CCC(=O)O)NC(=O)CSCC(=O)NCCN1C(=O)CN(C)C1=O)[C@@H](C)O)[C@@H](C)O)C(=O)N[C@@H](Cc1ccc(O)cc1)C(=O)N[C@@H](CC(C)C)C(=O)N[C@@H](CC(=O)O)C(=O)N[C@@H](CCCCN)C(=O)N[C@@H](CCC(N)=O)C(=O)N[C@@H](C)C(=O)N[C@@H](C)C(=O)NC(C)(C)C(=O)N[C@@H](CCC(=O)O)C(=O)N[C@@H](Cc1ccccc1)C(=O)N[C@H](C(=O)N[C@@H](CC(N)=O)C(=O)N[C@@H](Cc1c[nH]c2ccccc12)C(=O)N[C@@H](CC(C)C)C(=O)N[C@@H](CC(C)C)C(=O)N[C@@H](C)C(=O)NCC(=O)NCC(=O)N1CCC[C@H]1C(=O)N[C@@H](CO)C(=O)N[C@@H](CO)C(=O)NCC(=O)N[C@@H](C)C(=O)N1CCC[C@H]1C(=O)N1CCC[C@H]1C(=O)N1CCC[C@H]1C(=O)N[C@@H](CO)C(=O)N[C@@H](CCCCN)C(N)=O)C(C)C [Compound 112] | 10 to 100 nM | 10 to 100 nM | 26% | 26% | 94% | 10 to 100 nM | 94% | 10 to 100 nM |  |  |  |  |  |  |  | 
CC[C@H](C)[C@H](NC(=O)[C@H](CO)NC(=O)[C@H](Cc1ccc(O)cc1)NC(=O)[C@H](CC(=O)O)NC(=O)[C@H](CO)NC(=O)[C@@H](NC(=O)[C@H](Cc1ccccc1)NC(=O)[C@@H](NC(=O)CNC(=O)[C@H](CCC(=O)O)NC(=O)CSCC(=O)NCCN1C(=O)CC(C)CC1=O)[C@@H](C)O)[C@@H](C)O)C(=O)N[C@@H](Cc1ccc(O)cc1)C(=O)N[C@@H](CC(C)C)C(=O)N[C@@H](CC(=O)O)C(=O)N[C@@H](CCCCN)C(=O)N[C@@H](CCC(N)=O)C(=O)N[C@@H](C)C(=O)N[C@@H](C)C(=O)NC(C)(C)C(=O)N[C@@H](CCC(=O)O)C(=O)N[C@@H](Cc1ccccc1)C(=O)N[C@H](C(=O)N[C@@H](CC(N)=O)C(=O)N[C@@H](Cc1c[nH]c2ccccc12)C(=O)N[C@@H](CC(C)C)C(=O)N[C@@H](CC(C)C)C(=O)N[C@@H](C)C(=O)NCC(=O)NCC(=O)N1CCC[C@H]1C(=O)N[C@@H](CO)C(=O)N[C@@H](CO)C(=O)NCC(=O)N[C@@H](C)C(=O)N1CCC[C@H]1C(=O)N1CCC[C@H]1C(=O)N1CCC[C@H]1C(=O)N[C@@H](CO)C(=O)N[C@@H](CCCCN)C(N)=O)C(C)C [Compound 113] |  |  |  |  | 89% |  | 89% |  | 10 to 100 nM | 10 to 100 nM | 52% | 52% | 10 to 100 nM | 10 to 100 nM |  | 
CCCCCCCCCCCCCCCC(=O)N[C@@H](CCC(=O)NCCCC[C@H](NC(=O)[C@H](CO)NC(=O)[C@@H]1CCCN1C(=O)[C@@H]1CCCN1C(=O)[C@@H]1CCCN1C(=O)[C@H](C)NC(=O)CNC(=O)[C@H](CO)NC(=O)[C@H](CO)NC(=O)[C@@H]1CCCN1C(=O)CNC(=O)CNC(=O)[C@H](C)NC(=O)[C@H](CC(C)C)NC(=O)[C@H](CC(C)C)NC(=O)[C@H](Cc1c[nH]c2ccccc12)NC(=O)[C@H](CC(N)=O)NC(=O)[C@@H](NC(=O)[C@H](Cc1ccccc1)NC(=O)[C@H](CCC(=O)O)NC(=O)C(C)(C)NC(=O)[C@H](C)NC(=O)[C@H](C)NC(=O)[C@H](CCC(N)=O)NC(=O)[C@H](CCCCN)NC(=O)[C@H](CC(=O)O)NC(=O)[C@H](CC(C)C)NC(=O)[C@H](Cc1ccc(O)cc1)NC(=O)[C@@H](NC(=O)[C@H](CO)NC(=O)[C@H](Cc1ccc(O)cc1)NC(=O)[C@H](CC(=O)O)NC(=O)[C@H](CO)NC(=O)[C@@H](NC(=O)[C@H](Cc1ccccc1)NC(=O)[C@@H](NC(=O)CNC(=O)[C@H](CCC(=O)O)NC(=O)CCNC(=O)CCCN1C(=O)c2ccccc2C1=O)[C@@H](C)O)[C@@H](C)O)[C@@H](C)CC)C(C)C)C(N)=O)C(=O)O [Compound 115] | 1 to 10 nM | 1 to 10 nM |  |  | 91% | 1 to 10 nM | 91% | 1 to 10 nM |  |  | 67% | 67% |  |  |  | 
CC[C@H](C)[C@H](NC(=O)[C@H](CO)NC(=O)[C@H](Cc1ccc(O)cc1)NC(=O)[C@H](CC(=O)O)NC(=O)[C@H](CO)NC(=O)[C@@H](NC(=O)[C@H](Cc1ccccc1)NC(=O)[C@@H](NC(=O)CNC(=O)[C@H](CCC(=O)O)NC(=O)CSCC(=O)NCCN1C(=O)CCC1=O)[C@@H](C)O)[C@@H](C)O)C(=O)N[C@@H](Cc1ccc(O)cc1)C(=O)N[C@@H](CC(C)C)C(=O)N[C@@H](CC(=O)O)C(=O)N[C@@H](CCCCN)C(=O)N[C@@H](CCC(N)=O)C(=O)N[C@@H](C)C(=O)N[C@@H](C)C(=O)NC(C)(C)C(=O)N[C@@H](CCC(=O)O)C(=O)N[C@@H](Cc1ccccc1)C(=O)N[C@H](C(=O)N[C@@H](CC(N)=O)C(=O)N[C@@H](Cc1c[nH]c2ccccc12)C(=O)N[C@@H](CC(C)C)C(=O)N[C@@H](CC(C)C)C(=O)N[C@@H](C)C(=O)NCC(=O)NCC(=O)N1CCC[C@H]1C(=O)N[C@@H](CO)C(=O)N[C@@H](CO)C(=O)NCC(=O)N[C@@H](C)C(=O)N1CCC[C@H]1C(=O)N1CCC[C@H]1C(=O)N1CCC[C@H]1C(=O)N[C@@H](CO)C(=O)N[C@@H](CCCCN)C(N)=O)C(C)C [Compound 117] | 10 to 100 nM | 10 to 100 nM |  |  | 92% | 10 to 100 nM | 92% | 1 to 10 nM |  |  | 70% | 70% |  |  |  | 
CC[C@H](C)[C@H](NC(=O)[C@H](CO)NC(=O)[C@H](Cc1ccc(O)cc1)NC(=O)[C@H](CC(=O)O)NC(=O)[C@H](CO)NC(=O)[C@@H](NC(=O)[C@H](Cc1ccccc1)NC(=O)[C@@H](NC(=O)CNC(=O)[C@H](CCC(=O)O)NC(=O)CSCC(=O)NCCn1ccc(C(F)(F)F)cc1=O)[C@@H](C)O)[C@@H](C)O)C(=O)N[C@@H](Cc1ccc(O)cc1)C(=O)N[C@@H](CC(C)C)C(=O)N[C@@H](CC(=O)O)C(=O)N[C@@H](CCCCN)C(=O)N[C@@H](CCC(N)=O)C(=O)N[C@@H](C)C(=O)N[C@@H](C)C(=O)NC(C)(C)C(=O)N[C@@H](CCC(=O)O)C(=O)N[C@@H](Cc1ccccc1)C(=O)N[C@H](C(=O)N[C@@H](CC(N)=O)C(=O)N[C@@H](Cc1c[nH]c2ccccc12)C(=O)N[C@@H](CC(C)C)C(=O)N[C@@H](CC(C)C)C(=O)N[C@@H](C)C(=O)NCC(=O)NCC(=O)N1CCC[C@H]1C(=O)N[C@@H](CO)C(=O)N[C@@H](CO)C(=O)NCC(=O)N[C@@H](C)C(=O)N1CCC[C@H]1C(=O)N1CCC[C@H]1C(=O)N1CCC[C@H]1C(=O)N[C@@H](CO)C(=O)N[C@@H](CCCCN)C(N)=O)C(C)C [Compound 121] |  |  |  |  |  |  |  |  |  |  |  |  |  |  | 27% | 90%
CC[C@H](C)[C@H](NC(=O)[C@H](CO)NC(=O)[C@H](Cc1ccc(O)cc1)NC(=O)[C@H](CC(=O)O)NC(=O)[C@H](CO)NC(=O)[C@@H](NC(=O)[C@H](Cc1ccccc1)NC(=O)[C@@H](NC(=O)CNC(=O)[C@H](CCC(=O)O)NC(=O)CC(C)(C)CC(=O)NCCN1C(=O)CSC1=O)[C@@H](C)O)[C@@H](C)O)C(=O)N[C@@H](Cc1ccc(O)cc1)C(=O)N[C@@H](CC(C)C)C(=O)N[C@@H](CC(=O)O)C(=O)N[C@@H](CCCCN)C(=O)N[C@@H](CCC(N)=O)C(=O)N[C@@H](C)C(=O)N[C@@H](C)C(=O)NC(C)(C)C(=O)N[C@@H](CCC(=O)O)C(=O)N[C@@H](Cc1ccccc1)C(=O)N[C@H](C(=O)N[C@@H](CC(N)=O)C(=O)N[C@@H](Cc1c[nH]c2ccccc12)C(=O)N[C@@H](CC(C)C)C(=O)N[C@@H](CC(C)C)C(=O)N[C@@H](C)C(=O)NCC(=O)NCC(=O)N1CCC[C@H]1C(=O)N[C@@H](CO)C(=O)N[C@@H](CO)C(=O)NCC(=O)N[C@@H](C)C(=O)N1CCC[C@H]1C(=O)N1CCC[C@H]1C(=O)N1CCC[C@H]1C(=O)N[C@@H](CO)C(=O)N[C@@H](CCCCN)C(N)=O)C(C)C [Compound 122] | > 1000 nM | > 1000 nM | < 1% |  | 91% | 1 to 10 nM | 91% | 1 to 10 nM |  |  |  |  |  |  |  | 
